Data: ChEMBL document CHEMBL1136147, “Sub-nanomolar hMC1R agonists by end-capping of the melanocortin tetrapeptide His-D-Phe-Arg-Trp-NH(2)” (Bioorg Med Chem Lett, 2003)

How the values were obtained:
[1] = molecular target: T1, Melanocyte-stimulating hormone receptor (Homo sapiens, UniProt Q01726); test: Binding affinity towards human Melanocortin 1 receptor (hMC1R)
Melanocortin receptor 4 [2] = molecular target: T2, Melanocortin receptor 4 (Homo sapiens, UniProt P32245); test: In vitro agonist potency was evaluated in HEK293 cells transfected with human melanocortin receptor (hMC4R); format: functional, cell-based
T2 sequence (P32245 whole entry): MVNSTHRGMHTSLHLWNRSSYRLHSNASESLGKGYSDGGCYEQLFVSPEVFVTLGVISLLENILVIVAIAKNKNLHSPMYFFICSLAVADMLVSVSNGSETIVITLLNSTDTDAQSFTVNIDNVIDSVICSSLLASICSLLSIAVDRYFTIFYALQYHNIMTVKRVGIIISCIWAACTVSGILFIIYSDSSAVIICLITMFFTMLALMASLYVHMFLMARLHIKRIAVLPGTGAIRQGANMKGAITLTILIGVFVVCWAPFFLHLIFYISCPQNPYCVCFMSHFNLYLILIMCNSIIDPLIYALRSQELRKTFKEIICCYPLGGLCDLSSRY

Melanocortin receptor 3 [3] = molecular target: T3, Melanocortin receptor 3 (Homo sapiens, UniProt P41968); test: Binding affinity towards human Melanocortin 3 receptor (hMC3R)
T3 sequence (P41968 whole entry): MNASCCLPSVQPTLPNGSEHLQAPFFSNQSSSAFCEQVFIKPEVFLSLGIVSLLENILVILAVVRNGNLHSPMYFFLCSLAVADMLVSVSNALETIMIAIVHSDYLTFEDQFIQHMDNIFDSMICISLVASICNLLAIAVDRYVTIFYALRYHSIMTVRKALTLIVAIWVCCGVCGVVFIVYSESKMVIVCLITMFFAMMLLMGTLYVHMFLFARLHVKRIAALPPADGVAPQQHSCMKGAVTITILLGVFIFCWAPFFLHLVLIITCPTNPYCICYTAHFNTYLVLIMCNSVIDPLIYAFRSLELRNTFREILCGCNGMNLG

[4] = molecular target: T1, Melanocyte-stimulating hormone receptor; test: In vitro agonist potency was evaluated in HEK293 cells transfected with human melanocortin receptor (hMC1R); format: functional, cell-based
Melanocortin receptor 3 [5] = molecular target: T3, Melanocortin receptor 3; test: In vitro agonist potency was evaluated in HEK293 cells transfected with human melanocortin receptor (hMC3R); format: functional, cell-based
Melanocortin receptor 4 [6] = molecular target: T2, Melanocortin receptor 4; test: Binding affinity towards human melanocortin 4 receptor (hMC4R)

T1 sequence (Q01726 whole entry): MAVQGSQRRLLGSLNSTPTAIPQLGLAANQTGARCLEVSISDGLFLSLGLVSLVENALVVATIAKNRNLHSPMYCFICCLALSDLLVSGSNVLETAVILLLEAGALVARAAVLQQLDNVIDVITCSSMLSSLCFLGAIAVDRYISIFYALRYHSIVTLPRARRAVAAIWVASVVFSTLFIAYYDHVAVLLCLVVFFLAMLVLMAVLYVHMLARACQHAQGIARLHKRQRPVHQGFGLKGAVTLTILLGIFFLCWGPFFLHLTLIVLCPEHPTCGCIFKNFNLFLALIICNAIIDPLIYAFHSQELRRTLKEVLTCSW

Ki [1] | EC50 (Melanocortin receptor 4 [2]) | Ki (Melanocortin receptor 3 [3]) | EC50 [4] | EC50 (Melanocortin receptor 3 [5]) | Ki (Melanocortin receptor 4 [6]) | SMILES
34 nM | 21.3 nM | 440 nM | 13.7 nM | 640 nM | 100 nM | N=C(N)NCCC[C@H](NC(=O)[C@H](Cc1ccccc1)NC(=O)[C@H](Cc1cnc[nH]1)NC(=O)CCCO)C(=O)N[C@@H](Cc1c[nH]c2ccccc12)C(N)=O
6 nM | 20 nM | 65 nM | 0.5 nM | 17 nM | 49 nM | N=C(N)NCCC[C@H](NC(=O)[C@H](Cc1ccccc1)NC(=O)[C@H](Cc1c[nH]cn1)NC(=O)CCc1ccccc1)C(=O)N[C@@H](Cc1c[nH]c2ccccc12)C(N)=O
17.5 nM | 13 nM | 66.5 nM | 2 nM | 28 nM | 100 nM | N=C(N)NCCC[C@H](NC(=O)[C@H](Cc1ccccc1)NC(=O)[C@H](Cc1c[nH]cn1)NC(=O)Cc1ccccc1)C(=O)N[C@@H](Cc1c[nH]c2ccccc12)C(N)=O
91.5 nM | 42.5 nM | 380 nM | 9.5 nM | 570 nM | 350 nM | COCC(=O)N[C@@H](Cc1cnc[nH]1)C(=O)N[C@@H](Cc1ccccc1)C(=O)N[C@@H](CCCNC(=N)N)C(=O)N[C@@H](Cc1c[nH]c2ccccc12)C(N)=O
30 nM | 28 nM | 260 nM | 6.8 nM | 98.3 nM | 160 nM | N=C(N)NCCC[C@H](NC(=O)[C@H](Cc1ccccc1)NC(=O)[C@H](Cc1c[nH]cn1)NC(=O)c1ccccc1)C(=O)N[C@@H](Cc1c[nH]c2ccccc12)C(N)=O
170 nM | 11 nM | 440 nM | 33.3 nM | 390 nM | 66.5 nM | N=C(N)NCCC[C@H](NC(=O)[C@H](Cc1ccccc1)NC(=O)[C@H](Cc1cnc[nH]1)NS(=O)(=O)c1ccc(Cl)cc1)C(=O)N[C@@H](Cc1c[nH]c2ccccc12)C(N)=O
63.5 nM | 22.5 nM | 540 nM | 6.5 nM | 120 nM | 170 nM | N=C(N)NCCC[C@H](NC(=O)[C@H](Cc1ccccc1)NC(=O)[C@H](Cc1c[nH]cn1)NC(=O)CC(F)(F)F)C(=O)N[C@@H](Cc1c[nH]c2ccccc12)C(N)=O
40 nM | 24 nM | 280 nM | 7 nM | 130 nM | 97.5 nM | CC(C)C(=O)N[C@@H](Cc1cnc[nH]1)C(=O)N[C@@H](Cc1ccccc1)C(=O)N[C@@H](CCCNC(=N)N)C(=O)N[C@@H](Cc1c[nH]c2ccccc12)C(N)=O
86.5 nM | 18 nM | 350 nM | 8 nM | 160 nM | 110 nM | N#CCC(=O)N[C@@H](Cc1c[nH]cn1)C(=O)N[C@@H](Cc1ccccc1)C(=O)N[C@@H](CCCNC(=N)N)C(=O)N[C@@H](Cc1c[nH]c2ccccc12)C(N)=O
11.5 nM | 6.3 nM | 140 nM | 8 nM | 40.5 nM | 15.5 nM | N=C(N)NCCC[C@H](NC(=O)[C@H](Cc1ccccc1)NC(=O)[C@H](Cc1c[nH]cn1)NC(=O)C(O)Cc1ccccc1)C(=O)N[C@@H](Cc1c[nH]c2ccccc12)C(N)=O (some centres undefined)
37 nM | – | 770 nM | 13 nM | 170 nM | – | CC(=O)N[C@@H](Cc1c[nH]cn1)C(=O)N[C@@H](Cc1ccccc1)C(=O)N[C@@H](CCCN=C(N)N)C(=O)N[C@@H](Cc1c[nH]c2ccccc12)C(N)=O
43 nM | 14.5 nM | 130 nM | 5 nM | 13 nM | 160 nM | CC(C)(C)C(=O)N[C@@H](Cc1cnc[nH]1)C(=O)N[C@@H](Cc1ccccc1)C(=O)N[C@@H](CCCNC(=N)N)C(=O)N[C@@H](Cc1c[nH]c2ccccc12)C(N)=O
47.5 nM | 38.5 nM | 540 nM | 7.5 nM | 450 nM | 160 nM | CCC(=O)N[C@@H](Cc1c[nH]cn1)C(=O)N[C@@H](Cc1ccccc1)C(=O)N[C@@H](CCCN=C(N)N)C(=O)N[C@@H](Cc1c[nH]c2ccccc12)C(N)=O
20.5 nM | 26.5 nM | 170 nM | 2 nM | 45 nM | 120 nM | CCCCC(=O)N[C@@H](Cc1cnc[nH]1)C(=O)N[C@@H](Cc1ccccc1)C(=O)N[C@@H](CCCNC(=N)N)C(=O)N[C@@H](Cc1c[nH]c2ccccc12)C(N)=O
125 nM | 53 nM | 630 nM | 7 nM | 300 nM | 440 nM | N=C(N)NCCC[C@H](NC(=O)[C@H](Cc1ccccc1)NC(=O)[C@H](Cc1c[nH]cn1)NC(=O)CO)C(=O)N[C@@H](Cc1c[nH]c2ccccc12)C(N)=O
62 nM | 16.5 nM | 160 nM | 7 nM | 58 nM | 140 nM | N=C(N)NCCC[C@H](NC(=O)[C@H](Cc1ccccc1)NC(=O)[C@H](Cc1cnc[nH]1)NC(=O)C(N)=O)C(=O)N[C@@H](Cc1c[nH]c2ccccc12)C(N)=O
6 nM | 11.5 nM | 110 nM | 2 nM | 6 nM | 68 nM | N=C(N)NCCC[C@H](NC(=O)[C@H](Cc1ccccc1)NC(=O)[C@H](Cc1c[nH]cn1)NC(=O)COc1ccc(Cl)cc1)C(=O)N[C@@H](Cc1c[nH]c2ccccc12)C(N)=O
43 nM | 20.5 nM | 210 nM | 3.5 nM | 71 nM | 87 nM | N=C(N)NCCC[C@H](NC(=O)[C@H](Cc1ccccc1)NC(=O)[C@H](Cc1cnc[nH]1)NC(=O)C1CC1)C(=O)N[C@@H](Cc1c[nH]c2ccccc12)C(N)=O
37.5 nM | 38.5 nM | 580 nM | 4.5 nM | 93.3 nM | 150 nM | CCCC(=O)N[C@@H](Cc1cnc[nH]1)C(=O)N[C@@H](Cc1ccccc1)C(=O)N[C@@H](CCCNC(=N)N)C(=O)N[C@@H](Cc1c[nH]c2ccccc12)C(N)=O
0.006 nM | – | 13.5 nM | 0.009 nM | – | – | NC(=O)[C@H](Cc1c[nH]c2ccccc12)NC(=O)[C@H](CCCN=C(N)N)NC(=O)[C@@H](Cc1ccccc1)NC(=O)[C@H](Cc1cnc[nH]1)NC(=O)CCCc1ccccc1
3.5 nM | 7.5 nM | 20 nM | 9.5 nM | 9.3 nM | 5 nM | N=C(N)NCCC[C@H](NC(=O)[C@H](Cc1ccccc1)NC(=O)[C@H](Cc1cnc[nH]1)NC(=O)Cc1ccc(Cl)cc1)C(=O)N[C@@H](Cc1c[nH]c2ccccc12)C(N)=O
57.5 nM | 41 nM | 230 nM | 9 nM | 230 nM | 210 nM | CSCC(=O)N[C@@H](Cc1cnc[nH]1)C(=O)N[C@@H](Cc1ccccc1)C(=O)N[C@@H](CCCNC(=N)N)C(=O)N[C@@H](Cc1c[nH]c2ccccc12)C(N)=O
260 nM | 21.5 nM | 1900 nM | 88 nM | 840 nM | 170 nM | CS(=O)(=O)N[C@@H](Cc1c[nH]cn1)C(=O)N[C@@H](Cc1ccccc1)C(=O)N[C@@H](CCCN=C(N)N)C(=O)N[C@@H](Cc1c[nH]c2ccccc12)C(N)=O

SMILES | Ki [1] | EC50 (Melanocortin receptor 4 [2]) | Ki (Melanocortin receptor 3 [3]) | EC50 [4] | EC50 (Melanocortin receptor 3 [5]) | Ki (Melanocortin receptor 4 [6])
N=C(N)NCCC[C@H](NC(=O)[C@H](Cc1ccccc1)NC(=O)[C@@H](N)Cc1cnc[nH]1)C(=O)N[C@@H](Cc1c[nH]c2ccccc12)C(N)=O | 51 nM | 29.7 nM | 890 nM | 31.8 nM | 350 nM | 180 nM
